Results taken from patent publication US9169199B2, “Cycloalkyl guanidine F1F0-ATPase inhibitors and therapeutic uses thereof” (Lycera Corporation, priority 2010, dated 2015).

Key:
F1F0-ATPase = target: T1, F1F0-ATPase (Bos taurus, UniProt P13621); assay: Inhibition of ATP synthesis by the F1F0-ATPase; type: biochemical
T1 construct: from tissue
Method: (§1) Compounds in Example 4 above were tested for activity against F1F0-ATPase by measuring ATP synthesis. In addition, the compounds were assessed for cytotoxicity in Ramos cells. Inhibition of ATP synthesis by the F1F0-ATPase and cytotoxicity in Ramos cells were measured according to the procedures described in K. M. Johnson et al. Chemistry & Biology 2005, 12, 485-496.

Ramos cells = assay: Cytotoxicity in Ramos cells; type: cell-based; conditions: Homo sapiens, read-out: Ramos cell EC50
Method: as §1

IC50 (F1F0-ATPase)	Compound	EC50 (Ramos cells)
< 10 µM	COC(=O)NC1CCC(N/C(=N\C(=O)c2ccc(C)cc2)Nc2cc(F)cc(Cl)c2)CC1 (centres unmarked) [Compound 147]	< 10 µM
< 10 µM	O=C(/N=C(/Nc1cc(F)cc(Cl)c1)N[C@H]1CC[C@H](NC(=O)c2ccccc2)CC1)c1ccc(F)c(F)c1 [Compound 140]	< 10 µM
< 10 µM	CCOC(=O)N[C@H]1CC[C@H](N/C(=N\C(=O)c2ccc(F)c(F)c2)NCc2ccccc2Cl)CC1 [Compound 47]	< 10 µM
> 10 µM	O=C(/N=C(/Nc1cccc(Cl)c1)N[C@H]1CC[C@H](O)CC1)c1cccc(Cl)c1 [Compound 25]	< 10 µM
< 10 µM	O=C(/N=C(/NCc1ccc(F)cc1Cl)N[C@H]1CC[C@H](Nc2ncccn2)CC1)c1ccc(F)c(F)c1 [Compound 73]	< 10 µM
< 10 µM	O=C(/N=C(/Nc1cc(F)cc(Cl)c1)N[C@H]1CC[C@H](Nc2ncccn2)CC1)c1ccc(Cl)cc1 [Compound 118]	< 10 µM
> 10 µM	CC(C)(C)N/C(=N/C(=O)c1ccc(C(F)(F)F)cc1)N[C@H]1CC[C@H](Nc2ncccn2)CC1 [Compound 112]	> 10 µM
< 10 µM	CCOC(=O)N[C@H]1CC[C@H](N/C(=N\C(=O)c2ccc(F)c(F)c2)NCc2ccccc2C(F)(F)F)CC1 [Compound 50]	< 10 µM
< 10 µM	O=C(/N=C(/Nc1cccc(Cl)c1F)N[C@H]1CC[C@H](Nc2ncccn2)CC1)c1ccc(F)c(F)c1 [Compound 84]	> 10 µM
< 10 µM	O=C(/N=C(/NCc1ccccc1C(F)(F)F)N[C@H]1CC[C@H](O)CC1)c1ccc(C(F)(F)F)cc1 [Compound 17]	< 10 µM
< 10 µM	CCOC(=O)N[C@H]1CC[C@H](N/C(=N\C(=O)c2ccc(F)c(F)c2)NCc2ccc(F)c(F)c2)CC1 [Compound 56]	< 10 µM
> 10 µM	O=C(/N=C(/NCc1cccc(F)c1F)N[C@H]1CC[C@H](O)CC1)c1ccc(F)c(F)c1 [Compound 40]	> 10 µM
< 10 µM	CCOC(=O)N[C@H]1CC[C@H](N/C(=N\C(=O)c2ccc(F)c(F)c2)NCc2cccc(F)c2)CC1 [Compound 54]	< 10 µM
	O=C(/N=C(/NCc1ccccc1C(F)(F)F)N[C@H]1CC[C@H](O)CC1)c1ccc(F)c(F)c1 [Compound 32]	> 10 µM
< 10 µM	O=C(/N=C(/Nc1cc(F)cc(Cl)c1)N[C@H]1CCCC[C@H]1O)c1ccc(C(F)(F)F)cc1 [Compound 123]	< 10 µM
> 10 µM	O=C(/N=C(/NCc1cc(F)ccc1F)N[C@H]1CC[C@H](O)CC1)c1ccc(F)c(F)c1 [Compound 38]	> 10 µM
< 10 µM	COC(=O)N[C@H]1CC[C@H](N/C(=N/C(=O)c2ccc(F)c(F)c2)Nc2cc(F)cc(Cl)c2)CC1 [Compound 11]	< 10 µM
< 10 µM	CCOC(=O)N[C@H]1CC[C@H](N/C(=N/C(=O)c2ccc(F)c(F)c2)Nc2cccc(Cl)c2)CC1 [Compound 19]	< 10 µM
< 10 µM	O=C(/N=C(/Nc1cccc(Cl)c1)N[C@H]1CC[C@H](NC(=O)c2cccs2)CC1)c1ccc(F)c(F)c1 [Compound 133]	< 10 µM
< 10 µM	CCOC(=O)NC1CCC(N/C(=N\C(=O)c2ccccc2)Nc2cc(F)cc(Cl)c2)CC1 (centres unmarked) [Compound 149]	< 10 µM

IC50 (F1F0-ATPase)	Compound	EC50 (Ramos cells)
< 10 µM	O=C(/N=C(/Nc1cc(F)cc(Cl)c1)N[C@H]1CC[C@H](O)CC1)c1ccc(C(F)(F)F)cc1 [Compound 7]	< 10 µM
> 10 µM	CC(C)(C)OC(=O)NC1CCC(NC(=NC(=O)c2ccc(Cl)cc2)NC2CCC(NC(=O)OC(C)(C)C)CC2)CC1 (centres unmarked) [Compound 162]	> 10 µM
> 10 µM	O=C(/N=C(/Nc1cccc(Cl)c1)N[C@H]1CC[C@H](O)CC1)c1ccc(Cl)cc1 [Compound 27]	< 10 µM
< 10 µM	O=C(/N=C(/Nc1ccc(Cl)c(F)c1)N[C@H]1CC[C@H](O)CC1)c1ccc(C(F)(F)F)cc1 [Compound 68]	< 10 µM
< 10 µM	O=C(/N=C(/NC1CCCCC1)N[C@H]1CC[C@H](Nc2ncccn2)CC1)c1ccc(F)c(F)c1 [Compound 87]	< 10 µM
< 10 µM	CCOC(=O)N[C@H]1CC[C@H](N/C(=N\C(=O)c2ccc(F)c(F)c2)NCc2cc(F)cc(F)c2)CC1 [Compound 59]	< 10 µM
< 10 µM	Cc1cc(C(=O)N[C@H]2CC[C@H](N/C(=N\C(=O)c3ccc(F)c(F)c3)Nc3cccc(Cl)c3)CC2)ccn1 [Compound 132]	< 10 µM
	CCOC(=O)N[C@H]1CC[C@H](N/C(=N/C(=O)c2ccc(F)c(F)c2)NC2CCCC2)CC1 [Compound 70]	> 10 µM
< 10 µM	CCOC(=O)N[C@H]1CC[C@H](N/C(=N\C(=O)c2ccc(F)c(F)c2)NCc2ccc(F)c(Cl)c2)CC1 [Compound 61]	< 10 µM
< 10 µM	CCOC(=O)N[C@H]1CC[C@H](N/C(=N\C(=O)c2ccc(F)c(F)c2)NCc2ccc(Cl)cc2)CC1 [Compound 49]	< 10 µM
< 10 µM	O=C(/N=C(/Nc1cccc(C(F)(F)F)c1)N[C@H]1CC[C@H](Nc2ncccn2)CC1)c1ccc(C(F)(F)F)cc1 [Compound 116]	< 10 µM
< 10 µM	O=C(/N=C(/Nc1cccc(Cl)c1)N[C@H]1CC[C@H](Nc2ncccn2)CC1)c1ccc(F)c(F)c1 [Compound 20]	< 10 µM
< 10 µM	CCOC(=O)N[C@H]1CC[C@H](N/C(=N/C(=O)c2ccc(F)c(F)c2)Nc2ccc(F)cc2C2CC2)CC1 [Compound 98]	< 10 µM
< 10 µM	O=C(/N=C(/Nc1cc(F)cc(Cl)c1)NC1CCC(NC(=O)c2cscn2)CC1)c1ccc(F)c(F)c1 (centres unmarked) [Compound 170]	< 10 µM
< 10 µM	CCOC(=O)N[C@H]1CC[C@H](N/C(=N/C(=O)c2ccc(F)c(F)c2)Nc2cc(F)cc(Cl)c2)CC1 [Compound 10]	< 10 µM
< 10 µM	O=C(/N=C(/Nc1cccc(Cl)c1)N[C@H]1CC[C@H](NC(=O)c2ccccc2)CC1)c1ccc(F)c(F)c1 [Compound 134]	< 10 µM
< 10 µM	CC(C)(C)CN/C(=N/C(=O)c1ccc(F)c(F)c1)N[C@H]1CC[C@H](NC(=O)c2ccccc2)CC1 [Compound 142]	< 10 µM
< 10 µM	CC(C)(C)OC(=O)N[C@H]1CC[C@H](N/C(=N\C(=O)c2ccc(F)c(F)c2)Nc2cccc(Cl)c2)CC1 [Compound 78]	< 10 µM
< 10 µM	O=C(/N=C(/Nc1cc(F)cc(Cl)c1)NC1CCC(NC(=O)c2ccccc2)CC1)c1ccccc1 (centres unmarked) [Compound 151]	< 10 µM
< 10 µM	COc1cccc(C(=O)/N=C(/Nc2cc(F)cc(Cl)c2)NC2CCC(NC(=O)c3ccccc3)CC2)c1 (centres unmarked) [Compound 157]	< 10 µM

IC50 (F1F0-ATPase)	Compound	EC50 (Ramos cells)
> 10 µM	O=C(/N=C(/Nc1cc(F)cc(Cl)c1)N[C@H]1CC[C@H](O)CC1)c1ccc(Cl)cc1 [Compound 28]	< 10 µM
< 10 µM	CCOC(=O)N[C@H]1CC[C@H](N/C(=N\C(=O)c2ccc(F)c(F)c2)NC2CCC(C)CC2)CC1 (some centres unmarked) [Compound 77]	< 10 µM
< 10 µM	O=C(Cc1ccc(Cl)cc1)/N=C(\Nc1cc(F)cc(Cl)c1)N[C@H]1CC[C@H](O)CC1 [Compound 71]	> 10 µM
< 10 µM	O=C(/N=C(/Nc1cc(F)cc(Cl)c1)N[C@H]1CC[C@H](O)CC1)c1ccc(F)c(F)c1 [Compound 6]	< 10 µM
< 10 µM	CC(C)(C)OC(=O)NC1CCC(N/C(=N\C(=O)c2ccc(F)c(F)c2)Nc2cc(F)cc(Cl)c2)CC1 (centres unmarked) [Compound 167]	< 10 µM
< 10 µM	O=C(/N=C(/Nc1cccc(Cl)c1)N[C@H]1CC[C@H](NC(=O)c2cnccn2)CC1)c1ccc(F)c(F)c1 [Compound 131]	< 10 µM
< 10 µM	COC(=O)NC1CCC(N/C(=N\C(=O)c2ccccc2)Nc2cc(F)cc(Cl)c2)CC1 (centres unmarked) [Compound 150]	> 10 µM
< 10 µM	CCOC(=O)NC1CCC(N/C(=N\C(=O)c2cccc(C)c2)Nc2cc(F)cc(Cl)c2)CC1 (centres unmarked) [Compound 159]	< 10 µM
< 10 µM	O=C(/N=C(/Nc1cccc(C(F)(F)F)c1)N[C@H]1CC[C@H](Nc2ncccn2)CC1)c1ccc(F)c(F)c1 [Compound 94]	< 10 µM
< 10 µM	O=C(/N=C(/Nc1cc(F)cc(Cl)c1)NC1CCC(NC(=O)c2cccnc2)CC1)c1ccc(F)c(F)c1 (centres unmarked) [Compound 169]	< 10 µM
> 10 µM	O=C(/N=C(/NCc1ccc(F)c(Cl)c1)N[C@H]1CC[C@H](O)CC1)c1ccc(F)c(F)c1 [Compound 44]	< 10 µM
< 10 µM	O=C(/N=C(/Nc1cc(F)cc(Cl)c1)N[C@H]1CCCC[C@@H]1O)c1ccc(F)c(F)c1 [Compound 129]	< 10 µM
< 10 µM	O=C(/N=C(/Nc1cc(F)cc(Cl)c1)N[C@H]1CC[C@H](O)CC1)c1cccc(Cl)c1 [Compound 26]	
> 10 µM	CC(C)(C)N/C(=N/C(=O)c1ccc(F)c(F)c1)N[C@H]1CC[C@H](O)CC1 [Compound 108]	> 10 µM
< 10 µM	CC(C)(C)c1ccccc1N/C(=N\C(=O)c1ccc(C(F)(F)F)cc1)N[C@H]1CC[C@H](O)CC1 [Compound 1]	< 10 µM
< 10 µM	CC(C)(C)CN/C(=N/C(=O)c1ccc(F)c(F)c1)N[C@H]1CC[C@H](NC(=O)c2cccs2)CC1 [Compound 141]	< 10 µM
> 10 µM	N[C@H]1CC[C@H](N/C(=N/C(=O)c2ccc(F)c(F)c2)Nc2cc(F)cc(Cl)c2)CC1 [Compound 12]	< 10 µM
	O=C(/N=C(/Nc1cc(F)cc(Cl)c1)N[C@H]1CCCC[C@@H]1O)c1ccc(C(F)(F)F)cc1 [Compound 127]	< 10 µM
	O=C(/N=C(/Nc1cc(F)cc(Cl)c1)NC1CCC(O)CC1)c1cccc(Cl)c1 (centres unmarked) [Compound 26]	< 10 µM
